# Experimental data taken from patent US8940310B2, “Methods of treatment using TLR7 and/or TLR9 inhibitors” (Dynavax Technologies Corporation, priority 2010, dated 2015).
# Marks after values point to notes of the source that are not given here. [I] = hypoxanthine (inosine)
# Legend:
# [1] = Monomer and tetramer formation of IRPs, size-exclusion HPLC; format: physicochemical; details: 100 mg/mL in PBS and 0.5M KCl, room temperature, five weeks
# Method: Solutions were prepared of the by mixing 100 mg/mL of the IRP sequences in PBS and 0.5M KCl and storing at room temperature for three to five weeks. The solutions were subsequently analyzed by size-exclusion HPLC.
# [2] = High dosages of IRPs in rats (weight, deaths, histology); format: in vivo, Sprague Dawley rats; details: for Heart: Cell Vacuolation, number of animals / Heart: Hemorrhage, number of animals / Heart: Mononuclear Cell Infiltration, number of animals / Heart: Necrosis, number of animals / Heart: No significant changes, number of animals / Liver: Liver changes, number of animals / Liver: Mixed cell infiltration, number of animals / Liver: Necrosis, number of animals / Liver: No significant changes, number of animals / Liver: Vacuolation, number of animals / Right Kidney: Hydronephrosis, number of animals / Right Kidney: Mineralization, number of animals / Right Kidney: Necrosis, number of animals / Right Kidney: No significant changes, number of animals / Right Kidney: Tubular basophilia, number of animals / Right Kidney: Tubular changes, number of animals: 6 animals
# [3] = High dosages of IRPs in mice (weight, histology); format: in vivo, BALB/c mice; details: for Liver: Liver changes, number of animals / Liver: Mixed cell infiltration, number of animals / Liver: No significan changes, number of animals / Right Kidney: No significant changes, number of animals / Right Kidney: Tubular basophilia, number of animals / Right Kidney: Tubular changes, number of animals: 6 animals; for Heart: No significant changes, number of animals: tissue missing in two animals
# Outline: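 BALB/c mice (n=5 per group) received IRPs or saline subcutaneously at 4, 20, 50 or 100 mg/kg on days 1, 4, 7 and 10. Body weight tracked over the study; at termination organ weights, tissue oligonucleotide levels and liver, kidney and heart histology were assessed.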
# human B-cells = test: Human B-cells cultured in the presence of IRPs, IL-6
# Method: For the human B-cell assay, B-cells were purified from total blood cells obtained from healthy donors using magnetic beads (CD19 positive). Cells were resuspended in fresh medium (RPMI 1640 with 10% fetal calf serum, 50 units/mL penicillin, 50 μg/mL streptomycin, and 2 mM glutamine). At 48 hours, supernatants were collected and cytokine levels, IL-6, were measured using immunoassay.
# To further investigate the effect of IRPs on B-cell stimulatory activity, a wide variety of IRP sequences were assayed for IL-6, along with positive and negative controls. The experiment was performed as described in Example 1 using doses of IRP of either 4.0 μM or 2.0 μM. The positive control was an immunostimulatory sequence (ISS) with SEQ ID NO:157. […] The results are presented as the average normalized IL-6 response over several experiments.
# [4] = rat, 10 mg/kg, 0 = no change to 4 = severe
# [5] = rat, 90 mg/kg, 0 = no change to 4 = severe
# [6] = 50 mg/kg, 0 = no change to 4 = severe
# [7] = 100 mg/kg, 0 = no change to 4 = severe
substance,measurement,setting,value
"5′-TGC TCC TGG AGI GGT TGT-3′ (DNA TGCTCCTGGAGNGGTTGT; DNA, [I] at 12, backbone and methylation of C not given here) [SEQ ID NO:73]",fraction in monomer form,[1],100%
same,toxicity profile,[2]; rat histology,favorable toxicity profiles
same,"Heart: Cell Vacuolation, number of animals","[2]; rat, 10 mg/kg",0
same,"Heart: Hemorrhage, number of animals","[2]; rat, 10 mg/kg",0
same,"Heart: Mononuclear Cell Infiltration, number of animals","[2]; rat, 10 mg/kg",0
same,"Heart: Necrosis, number of animals","[2]; rat, 10 mg/kg",0
same,"Heart: No significant changes, number of animals","[2]; rat, 10 mg/kg",6
same,"Liver: Liver changes, number of animals","[2]; rat, 10 mg/kg",0
same,"Liver: Mixed cell infiltration, number of animals","[2]; rat, 10 mg/kg",6
same,"Liver: Necrosis, number of animals","[2]; rat, 10 mg/kg",0
same,"Liver: No significant changes, number of animals","[2]; rat, 10 mg/kg",0
same,"Liver: Vacuolation, number of animals","[2]; rat, 10 mg/kg",0
same,"Right Kidney: Hydronephrosis, number of animals","[2]; rat, 10 mg/kg",1
same,"Right Kidney: Mineralization, number of animals","[2]; rat, 10 mg/kg",1
same,"Right Kidney: Necrosis, number of animals","[2]; rat, 10 mg/kg",0
same,"Right Kidney: No significant changes, number of animals","[2]; rat, 10 mg/kg",0
same,"Right Kidney: Tubular basophilia, number of animals","[2]; rat, 10 mg/kg",0
same,"Right Kidney: Tubular changes, number of animals","[2]; rat, 10 mg/kg",6
same,"Liver: Mixed cell infiltration, mean severity score",[2]; [4],1.8
same,"Right Kidney: Hydronephrosis, mean severity score",[2]; [4],2.0
same,"Right Kidney: Mineralization, mean severity score",[2]; [4],1.0
same,"Right Kidney: Tubular changes, mean severity score",[2]; [4],1.3
same,"Heart: Cell Vacuolation, number of animals","[2]; rat, 90 mg/kg",0
same,"Heart: Hemorrhage, number of animals","[2]; rat, 90 mg/kg",0
same,"Heart: Mononuclear Cell Infiltration, number of animals","[2]; rat, 90 mg/kg",0
same,"Heart: Necrosis, number of animals","[2]; rat, 90 mg/kg",0
same,"Heart: No significant changes, number of animals","[2]; rat, 90 mg/kg",6
same,"Liver: Liver changes, number of animals","[2]; rat, 90 mg/kg",6
same,"Liver: Mixed cell infiltration, number of animals","[2]; rat, 90 mg/kg",2
same,"Liver: Necrosis, number of animals","[2]; rat, 90 mg/kg",0
same,"Liver: No significant changes, number of animals","[2]; rat, 90 mg/kg",0
same,"Liver: Vacuolation, number of animals","[2]; rat, 90 mg/kg",0
same,"Right Kidney: Hydronephrosis, number of animals","[2]; rat, 90 mg/kg",0
same,"Right Kidney: Mineralization, number of animals","[2]; rat, 90 mg/kg",2
same,"Right Kidney: Necrosis, number of animals","[2]; rat, 90 mg/kg",0
same,"Right Kidney: No significant changes, number of animals","[2]; rat, 90 mg/kg",0
same,"Right Kidney: Tubular basophilia, number of animals","[2]; rat, 90 mg/kg",0
same,"Right Kidney: Tubular changes, number of animals","[2]; rat, 90 mg/kg",6
same,"Liver: Liver changes, mean severity score",[2]; [5],1.9
same,"Liver: Mixed cell infiltration, mean severity score",[2]; [5],2.0
same,"Right Kidney: Mineralization, mean severity score",[2]; [5],1.5
same,"Right Kidney: Tubular changes, mean severity score",[2]; [5],2.0
same,"Heart: Chronic inflammation, number of animals",[3]; 50 mg/kg,0
same,"Heart: Mineralization, number of animals",[3]; 50 mg/kg,2
same,"Heart: Mineralization, mean severity score",[3]; [6],3.0
same,"Liver: Liver changes, mean severity score",[3]; [6],1.0
same,"Liver: Mixed cell infiltration, mean severity score",[3]; [6],1.0
same,"Liver: Liver changes, number of animals",[3]; 50 mg/kg,1
same,"Liver: Mixed cell infiltration, number of animals",[3]; 50 mg/kg,2
same,"Liver: No significan changes, number of animals",[3]; 50 mg/kg,3
same,"Right Kidney: No significant changes, number of animals",[3]; 50 mg/kg,6
same,"Right Kidney: Tubular basophilia, number of animals",[3]; 50 mg/kg,0
same,"Right Kidney: Tubular changes, number of animals",[3]; 50 mg/kg,0
same,"Heart: No significant changes, number of animals",[3]; 50 mg/kg,2**
same,"Heart: Chronic inflammation, number of animals",[3]; 100 mg/kg,1
same,"Heart: Mineralization, number of animals",[3]; 100 mg/kg,1
same,"Heart: Chronic inflammation, mean severity score",[3]; [7],2.0
same,"Heart: Mineralization, mean severity score",[3]; [7],3.0
same,"Liver: Liver changes, mean severity score",[3]; [7],1.0
same,"Liver: Mixed cell infiltration, mean severity score",[3]; [7],1.0
same,"Right Kidney: Tubular changes, mean severity score",[3]; [7],1.0
same,"Liver: Liver changes, number of animals",[3]; 100 mg/kg,5
same,"Liver: Mixed cell infiltration, number of animals",[3]; 100 mg/kg,1
same,"Liver: No significan changes, number of animals",[3]; 100 mg/kg,1
same,"Right Kidney: No significant changes, number of animals",[3]; 100 mg/kg,0
same,"Right Kidney: Tubular basophilia, number of animals",[3]; 100 mg/kg,0
same,"Right Kidney: Tubular changes, number of animals",[3]; 100 mg/kg,6
same,"Heart: No significant changes, number of animals",[3]; 100 mg/kg,2**
same,Normalized IL-6 Response (Percentage of Positive Control),"human B-cells; Experiment # 1, Max Conc 4.0 uM",11%
same,Normalized IL-6 Response (Percentage of Positive Control),"human B-cells; Experiment # 2, Max Conc 4.0 uM",13%
same,Normalized IL-6 Response (Percentage of Positive Control),"human B-cells; Experiment # 3, Max Conc 4.0 uM",6%
same,Normalized IL-6 Response (Percentage of Positive Control),"human B-cells; Experiment # 9, Max Conc 2.0 uM",11%
same,B-cell stimulatory activity,"human B-cells; FIG. 1C, percent IL-6 from CpG-ISS",low B-cell stimulatory activity
